These results are taken from patent US20250326744A1, “PIPERAZINE DERIVATIVE OR SALT THEREOF, AND PHARMACEUTICAL COMPOSITION” (priority 2022, published 2025).

Assay [1] relates to mexB (PA) strain. Description: Combinational effect with antibacterial agent against Pseudomonas aeruginosa (Test Examples 2 and 4): mexB (PA) strain with LVFX, TC or AZT at 1/4 MIC, EC99. The format is cell-based. Particulars: for EC99, combinational effect with AZT, mexB (PA) / EC99, combinational effect with LVFX, mexB (PA) / EC99, combinational effect with TC, mexB (PA): mexB (PA) strain, Test Example 4; for EC99, combinational effect with AZT, mexB (PA) / EC99, mexB (PA), AZT: combined with AZT at 1/4 MIC; for EC99, combinational effect with LVFX, mexB (PA) / EC99, mexB (PA), LVFX: combined with LVFX at 1/4 MIC; for EC99, combinational effect with TC, mexB (PA) / EC99, mexB (PA), TC: combined with TC at 1/4 MIC; for EC99, mexB (PA), AZT / EC99, mexB (PA), LVFX / EC99, mexB (PA), TC: Table 52, Test Example 2, 16 to 20 hours culture, OD595. As to the method:
(§1) The combinational effect of the test compound with the antibacterial agent against Pseudomonas aeruginosa was evaluated.
For the evaluation of the inhibitory ability against MexAB-OprM, a mutant strain of Pseudomonas aeruginosa in which MexAB-OprM was expressed as a main drug efflux pump (hereinafter, referred to as a “mexB (PA) strain”) was used. LVFX, TC, or AZT was used as the antibacterial agent used in combination.
The mexB (PA) strain is a strain produced by deleting the genes of MexCD-OprJ, MexEF-OprN, and MexXY in the drug efflux pump of Pseudomonas aeruginosa described in FEMS Microbiology Letters, 2001, Vol. 202, pp. 139 to 143. In the mexB (PA) strain, an expression level of MexB as a drug efflux pump is accelerated.
TC is a tetracycline-based antibacterial agent and is a drug that is discharged outside the bacteria by MexB. AZT is a monobactam-based antibacterial agent and is a drug that is discharged outside the bacteria by MexB.
(§2) AMK and GM are aminoglycoside-based antibacterial agents, and are drugs that are not discharged outside the bacteria by MexB but are discharged outside the bacteria by MexY For the culture of each Pseudomonas aeruginosa strain, a 96-well plate (amount of culture medium per well: 100 μL) was used, and cation-adjusted Mueller Hinton broth (CAMHB) was used. The inoculation amount of the bacteria was set to 10^4 to 5 CFU/well.
(§3) The mexB (PA) strain and the S-3769 strain were cultured for 16 to 20 hours in a culture medium to which each antibacterial agent and test compounds at various concentrations (0 to 800 μM) were added, and the proliferation of the bacterial strains was evaluated by optical turbidity at 595 nm (OD595). The concentration of the antibacterial agent in the culture medium was set to ¼ MIC.
(§4) The proliferation of bacteria in a case where the test compound and the antibacterial agent were not added was measured, and compared with the proliferation of bacteria in a case where the test compound in a case where the antibacterial agent was added at the concentration of ¼ MIC was contained, and the lowest concentration of the test compound at which the proliferation was inhibited by 99% or more was defined as the drug efflux pump inhibitory ability of the test compound as 99% inhibitory effect concentration (EC99).
(§5) The effect of suppressing the proliferation of each test compound in combination with an antibacterial agent at ¼ MIC for mexB (PA) or the S-3769 strain was evaluated as follows according to the value of EC99. • S: EC99≤12.5 μM • A: 12.5 μM<EC99≤25 μM • B: 25 μM<EC99≤100 μM • C: 100 μM<EC99
(§6) The combinational effect of the test compound with the antibacterial agent against Pseudomonas aeruginosa was evaluated in the same manner as in Test Example 2.

In assay [2] the test system is S-3769 strain. Kind of assay: Combinational effect with antibacterial agent against Pseudomonas aeruginosa (Test Examples 2 and 4): S-3769 strain with AMK or GM at 1/4 MIC, EC99. The format is cell-based. To be noted: for EC99, combinational effect with AMK, S-3769 strain / EC99, S-3769 strain, AMK: combined with AMK at 1/4 MIC; for EC99, combinational effect with AMK, S-3769 strain / EC99, combinational effect with GM, S-3769 strain: Test Example 4; for EC99, combinational effect with GM, S-3769 strain / EC99, S-3769 strain, GM: combined with GM at 1/4 MIC; for EC99, S-3769 strain, AMK / EC99, S-3769 strain, GM: Table 52, Test Example 2, 16 to 20 hours culture, OD595. How it is done: as §1
The […] was used for evaluating the inhibitory ability against MexXY-OprM. AMK or GM was used as the antibacterial agent used in combination.
The S-3769 strain is a clinically isolated strain collected from a domestic medical institution, and is a strain in which the expression level of MexY is accelerated.
as §2, §3, §4, §5, §6

Structures can show the parent of a compound that is named as a salt.

Regarding `CSc1ccccc1CN1CCN(C(=O)[C@H](N)C2CCN(CCc3cc(Cl)ccc3-c3ccccc3F)CC2)CC1` [Example 601, Hydrochloride of (R)-2-amino-2-(1-(2-(4-chloro-2′-fluoro-[1,1-biphenyl]-2-yl)ethyl)piperidin-4-yl)-1-(4-(2-(methylthio)benzyl)piperazin-1-yl) ethan-1-one], in assay [1], the “EC99, combinational effect with AZT, mexB (PA)” value (from here on “EC99 … with AZT, mexB (PA)”) is recorded as “A (12.5 μM<EC99≤25 μM)”; the “EC99, combinational effect with LVFX, mexB (PA)” value (shortened to “EC99 … with LVFX, mexB (PA)”) was “A (12.5 μM<EC99≤25 μM)”; the “EC99, combinational effect with TC, mexB (PA)” value (“EC99 … with TC, mexB (PA)” for short) was “A (12.5 μM<EC99≤25 μM)”. In addition, in assay [2], the “EC99, combinational effect with AMK, S-3769 strain” value (from here on “EC99, combinational effect with AMK”) is reported as “B (25 μM<EC99≤100 μM)” and the “EC99, combinational effect with GM, S-3769 strain” value (from here on “EC99, combinational effect with GM”) is on record as “B (25 μM<EC99≤100 μM)”.
For the molecule `COc1cccc(O)c1CN1CCN(C(=O)[C@H](N)C2CCN(CCc3cc(Cl)ccc3-c3ccccc3)CC2)CC1` [Example 575, Hydrochloride of (R)-2-amino-2-(1-(2-(4-chloro-[1,1-biphenyl]-2-yl)ethyl)piperidin-4-yl)-1-(4-(2-hydroxy-6-methoxybenzyl)piperazin-1-yl) ethan-1-one], in assay [1], the “EC99 … with AZT, mexB (PA)” value is on record as “S (EC99≤12.5 μM)”; the “EC99 … with LVFX, mexB (PA)” value is on record as “S (EC99≤12.5 μM)”; the “EC99 … with TC, mexB (PA)” value was “A (12.5 μM<EC99≤25 μM)”. For the same molecule, in assay [2], the “EC99, combinational effect with AMK” value is recorded as “A (12.5 μM<EC99≤25 μM)” and the “EC99, combinational effect with GM” value is on record as “A (12.5 μM<EC99≤25 μM)”.
For `CSc1ccccc1CN1CCN(C(=O)[C@H](N)C2CCN(CCc3cc(Cl)ccc3-c3cc(O)ccc3Cl)CC2)CC1` [Example 618, (R)-2-amino-2-(1-(2-(2′,4-dichloro-5′-hydroxy-[1,1′-biphenyl]-2-yl)ethyl)piperidin-4-yl)-1-(4-(2-(methylthio)benzyl)piperazin-1-yl)ethan-1-one], in assay [1], the “EC99 … with AZT, mexB (PA)” value is “S (EC99≤12.5 μM)”; the “EC99 … with LVFX, mexB (PA)” value is “S (EC99≤12.5 μM)”; the “EC99 … with TC, mexB (PA)” value is given as “S (EC99≤12.5 μM)”. Also, in assay [2], the “EC99, combinational effect with AMK” value is on record as “S (EC99≤12.5 μM)” and the “EC99, combinational effect with GM” value is recorded as “S (EC99≤12.5 μM)”.
In the case of `CCSc1ccc(O)cc1CN1CCN(C(=O)[C@H](N)C2CCN(CCc3cc(Cl)ccc3-c3cccc(O)c3Cl)CC2)CC1` [Example 622, Hydrochloride of (R)-2-amino-2-(1-(2-(2′,4-dichloro-3′-hydroxy-[1,1-biphenyl]-2-yl)ethyl)piperidin-4-yl)-1-(4-(2-(ethylthio)-5-hydroxybenzyl)piperazin-1-yl)ethan-1-one], in assay [1], the “EC99 … with AZT, mexB (PA)” value was “S (EC99≤12.5 μM)”; the “EC99 … with LVFX, mexB (PA)” value is “S (EC99≤12.5 μM)”; the “EC99 … with TC, mexB (PA)” value is recorded as “S (EC99≤12.5 μM)”. Besides, in assay [2], the “EC99, combinational effect with AMK” value is “S (EC99≤12.5 μM)” and the “EC99, combinational effect with GM” value is recorded as “A (12.5 μM<EC99≤25 μM)”.
Regarding `CCOc1cccc(F)c1CN1CCN(C(=O)[C@H](N)C2CCN(CCc3cc(Cl)ccc3-c3cccc(N(C)C)c3)CC2)CC1` [Example 562, Hydrobromide of (R)-2-amino-2-(1-(2-(4-chloro-3′-(dimethylamino)-[1,1-biphenyl]-2-yl)ethyl)piperidin-4-yl)-1-(4-(2-ethoxy-6-fluorobenzyl)piperazin-1-yl)ethan-1-one], in assay [1], the “EC99 … with AZT, mexB (PA)” value is “A (12.5 μM<EC99≤25 μM)”; the “EC99 … with LVFX, mexB (PA)” value is “B (25 μM<EC99≤100 μM)”; the “EC99 … with TC, mexB (PA)” value is on record as “B (25 μM<EC99≤100 μM)”. Moreover, in assay [2], the “EC99, combinational effect with AMK” value is recorded as “S (EC99≤12.5 μM)” and the “EC99, combinational effect with GM” value is on record as “S (EC99≤12.5 μM)”.
For the molecule `N[C@@H](C(=O)N1CCN(Cc2cccc3c2OC(F)(F)O3)CC1)C1CCN(CCc2cc(Cl)ccc2-c2ccccc2)CC1` [Example 24, Hydrobromide of (R)-2-amino-2-(1-(2-(4-chloro-[1,1′-biphenyl]-2-yl)ethyl)piperidin-4-yl)-1-(4-((2,2-difluorobenzo[d][1,3]dioxol-4-yl)methyl)piperazin-1-yl)ethan-1-one], in assay [1], the “EC99, mexB (PA), AZT” value was “B (25 μM<EC99≤100 μM)”; the “EC99, mexB (PA), LVFX” value is given as “B (25 μM<EC99≤100 μM)”; the “EC99, mexB (PA), TC” value is “A (12.5 μM<EC99≤25 μM)”. In addition, in assay [2], the “EC99, S-3769 strain, AMK” value was “B (25 μM<EC99≤100 μM)” and the “EC99, S-3769 strain, GM” value is listed as “B (25 μM<EC99≤100 μM)”.
Regarding `CCSc1cc(F)ccc1CN1CCN(C(=O)[C@H](N)C2CCN(CCc3cc(Cl)ccc3-c3cccc(O)c3)CC2)CC1` [Example 593, Hydrochloride of (R)-2-amino-2-(1-(2-(4-chloro-3′-hydroxy-[1,1-biphenyl]-2-yl)ethyl)piperidin-4-yl)-1-(4-(2-(ethylthio)-4-fluorobenzyl)piperazin-1-yl) ethan-1-one], in assay [1], the “EC99 … with AZT, mexB (PA)” value is listed as “B (25 μM<EC99≤100 μM)”; the “EC99 … with LVFX, mexB (PA)” value is reported as “A (12.5 μM<EC99≤25 μM)”; the “EC99 … with TC, mexB (PA)” value is recorded as “A (12.5 μM<EC99≤25 μM)”. In assay [2], the “EC99, combinational effect with AMK” value is reported as “S (EC99≤12.5 μM)” and the “EC99, combinational effect with GM” value is “B (25 μM<EC99≤100 μM)”.
In the case of `N[C@@H](C(=O)N1CCN(Cc2ccccc2B(O)O)CC1)C1CCN(CCc2cc(Cl)ccc2-c2ccccc2)CC1` [Example 521, Hydrobromide of (R)-(2-((4-(2-amino-2-(1-(2-(4-chloro-[1,1-biphenyl]-2-yl)ethyl)piperidin-4-yl)acetyl)piperazin-1-yl)methyl)phenyl)boronic acid], in assay [1], the “EC99 … with AZT, mexB (PA)” value is “C (100 μM<EC99)”; the “EC99 … with LVFX, mexB (PA)” value is “C (100 μM<EC99)”; the “EC99 … with TC, mexB (PA)” value is given as “C (100 μM<EC99)”. Moreover, in assay [2], the “EC99, combinational effect with AMK” value was “B (25 μM<EC99≤100 μM)” and the “EC99, combinational effect with GM” value is given as “B (25 μM<EC99≤100 μM)”.
Regarding `CCOc1cccc(F)c1CN1CCN(C(=O)[C@H](N)C2CCN(CCc3coc4ccccc34)CC2)CC1` [Example 152, Hydrobromide of (R)-2-amino-2-(1-(2-(benzofuran-3-yl)ethyl)piperidin-4-yl)-1-(4-(2-ethoxy-6-fluorobenzyl)piperazin-1-yl) ethan-1-one], in assay [1], the “EC99, mexB (PA), AZT” value was “C (100 μM<EC99)”; the “EC99, mexB (PA), LVFX” value is on record as “C (100 μM<EC99)”; the “EC99, mexB (PA), TC” value was “C (100 μM<EC99)”. Also, in assay [2], the “EC99, S-3769 strain, AMK” value is “S (EC99≤12.5 μM)” and the “EC99, S-3769 strain, GM” value is on record as “S (EC99≤12.5 μM)”.
`COc1cccc(F)c1CN1CCN(C(=O)CN2CCN(CCc3ccccc3)CC2)CC1` [Example 215, hydrochloride of 1-(4-(2-fluoro-6-methoxybenzyl)piperazin-1-yl)-2-(4-phenethylpiperazin-1-yl)ethan-1-one]: in assay [1], the “EC99, mexB (PA), AZT” value was “A (12.5 μM<EC99≤25 μM)” and the “EC99, mexB (PA), LVFX” value is recorded as “S (EC99≤12.5 μM)”.
With `CCOc1ccccc1CN1CCN(C(=O)CN2CCN(CCc3ccccc3)CC2)CC1` [Example 220, Hydrochloride of 1-(4-(2-ethoxybenzyl)piperazin-1-yl)-2-(4-phenethylpiperazin-1-yl) ethan-1-one], in assay [1], the “EC99, mexB (PA), LVFX” value is recorded as “S (EC99≤12.5 μM)”.
